Experiments:
[1] = tested on: human retinal microvascular endothelial cells (HRMEC); test: VEGF-induced HRMEC proliferation study; type: cell-based
Description: VEGF-Induced Human Retinal Microvascular Endothelial Cells (HRMEC) Proliferation Study
VEGF is a factor which promotes neovascularization and is thought to be one of the causes of development or progression of age-related macular degeneration (Prog. Retinal Eye Res., 22 (1), 1-29 (2003)). Therefore, the inhibitory effect of the compounds of the invention against VEGF-induced cell proliferation is assessed by using human retinal vascular endothelial cells (HRMEC).
HRMEC are seeded in 96-well plates at 2.0×10^3 cells/well, and is cultured under the conditions of 5% CO2/95% air for 24 hours. Then the culture medium is exchanged with CSC medium containing 10% fetal bovine serum and the cells are cultured for 24 hours. The culture broth is exchanged with vehicle medium or study medium containing the compound of the invention at 0.1, 1.0, 10, or 100 microM. After preincubation for 1 hour, VEGF-A solution is added to be a concentration of 10 ng/ml, and the cells cultured for 24 hours. The culture broth without adding VEGF-A solution is also treated in the same manner. Then to the culture broth is added CCK-8, and the cells are cultured for 3 hours, then the absorbance (OD492) is measured.
In accordance with the following formula, the cell proliferation inhibition rate (%) of each compound-treated group is calculated. The number of examples of each group is six. Cell proliferation inhibition rate (%)=([…])×100 [equation] BO: absorbance of vehicle-treated group BX: absorbance of compound-treated group BN: absorbance of non-treated group

[2] = tested on: choroidal neovascularization; test: Laser-induced choroidal neovascularization (CNV) model; type: in vivo, male C57BL/6J mouse; settings: in comparison to the vehicle-treated group
Description: Laser-Induced Choroidal Neovascularization (CNV) Model A male C57BL/6J mouse is used. Mydrin P ophthalmic solution (registered trademark, Santen Pharmaceutical) is instilled into the right eye of the mouse to cause mydriasis. Animals are anesthetized, and laser irradiation is performed on around the circumference of the optic disk with eight equally space using a laser photocoagulation apparatus. After photocoagulation, intravitreal administration of drugs to the right eye (administering 2 microL of a solution of 60 microM and 600 microM using a solvent obtained by mixing 0.1N NaOH and pH 7.2 PBS containing 1.5×10^-3N HCl, at the ratio of 16:84) or oral administration/subcutaneous administration/intraperitoneal administration is conducted. After instillation of […] (registered trademark, Daiichi Sankyo) ophthalmic solution 0.5% into the right eye, the ocular fundus photography is promptly performed using an ocular fundus camera. […] Choroidal flat mounts specimens are observed using a confocal laser scanning microscope, and the CNV area of the image is calculated using the analysis software OLYMPUS FLUOVIEW FV1000.

CC(C)(C)c1cc2c(cc1Cl)C=C(C(=O)O)[C@@H](C(F)(F)F)O2 [Compound A, (S)-6-chloro-7-(1,1-dimethylethyl)-2-trifluoromethyl-2H-1-benzopyran-3-carboxylic acid]
effect on the proliferation of HRMEC ([1]; Compound A alone, without VEGF-A, FIG. 1 left side): no effect | inhibition of the proliferation of HRMEC induced by VEGF-A ([1]; VEGF-A 10 ng/ml, 24 hours, compound at 0.1, 1.0, 10, or 100 microM, FIG. 1 right side): inhibits the proliferation of HRMEC induced by VEGF-A in a dose-dependent manner | inhibition of VEGF-A-induced cell proliferation ([1]; at 10 to 100 microM, VEGF-A 10 ng/ml): inhibits the cell proliferation to control levels | CNV area ([2]; choroidal flat mount, day 15 after laser, FIG. 2): significantly reduced | CNV area (pathological image) ([2]; histopathological specimens, FIG. 3): significantly reduced
